ChEMBL document CHEMBL3580659, “One-pot multicomponent synthesis of indole incorporated thiazolylcoumarins and their antibacterial, anticancer and DNA cleavage studies” (2015)

Assays:
Format in all cases: functional
ACHN [1] = assay: Cytotoxicity against human ACHN cells assessed as cell growth level at 10 nM after 48 hrs by sulforhodamine B assay
NCI-H460 [2] = assay: Cytotoxicity against human NCI-H460 cells after 48 hrs by sulforhodamine B assay; conditions: NCI-H460, 48 h
M14 [3] = assay: Cytotoxicity against human M14 cells assessed as cell growth level at 10 uM after 48 hrs by sulforhodamine B assay
COLO 205 [4] = assay: Cytotoxicity against human COLO205 cells after 48 hrs by sulforhodamine B assay; conditions: COLO 205, 48 h
COLO 205 [5] = assay: Cytotoxicity against human COLO205 cells assessed as cell growth level at 10 uM after 48 hrs by sulforhodamine B assay
LOX IMVI = assay: Cytotoxicity against human LOXIMVI cells assessed as cell growth level at 100 uM after 48 hrs by sulforhodamine B assay
HOP-62 = assay: Cytotoxicity against human HOP62 cells assessed as cell growth level at 10 uM after 48 hrs by sulforhodamine B assay
786-0 = assay: Cytotoxicity against human 786-0 cells assessed as cell growth level at 10 uM after 48 hrs by sulforhodamine B assay
MCF7 [6] = assay: Cytotoxicity against human MCF7 cells assessed as cell growth level at 1 uM after 48 hrs by sulforhodamine B assay
MDA-MB-231 = assay: Cytotoxicity against human MDA-MB-231/ATCC cells after 48 hrs by sulforhodamine B assay; conditions: MDA-MB-231, 48 h
UACC-257 = assay: Cytotoxicity against human UACC257 cells assessed as cell growth level at 10 uM after 48 hrs by sulforhodamine B assay
IGROV-1 = assay: Cytotoxicity against human IGROV1 cells assessed as cell growth level at 100 nM after 48 hrs by sulforhodamine B assay
ACHN [7] = assay: Cytotoxicity against human ACHN cells after 48 hrs by sulforhodamine B assay
M14 [8] = assay: Cytotoxicity against human M14 cells assessed as cell growth level at 1 uM after 48 hrs by sulforhodamine B assay
SR = assay: Cytotoxicity against human SR cells assessed as cell growth level at 100 nM after 48 hrs by sulforhodamine B assay
A498 = assay: Cytotoxicity against human A498 cells assessed as cell growth level at 10 uM after 48 hrs by sulforhodamine B assay
OVCAR-5 = assay: Cytotoxicity against human OVCAR5 cells assessed as cell growth level at 10 nM after 48 hrs by sulforhodamine B assay
SF-268 = assay: Cytotoxicity against human SF268 cells after 48 hrs by sulforhodamine B assay; conditions: SF-268, 48 h
MOLT-4 = assay: Cytotoxicity against human MOLT4 cells assessed as cell growth level at 100 uM after 48 hrs by sulforhodamine B assay
RPMI-8226 = assay: Cytotoxicity against human RPMI8226 cells assessed as cell growth level at 100 nM after 48 hrs by sulforhodamine B assay
K562 [9] = assay: Cytotoxicity against human K562 cells assessed as cell growth level at 10 uM after 48 hrs by sulforhodamine B assay
NCI-H460 [10] = assay: Cytotoxicity against human NCI-H460 cells assessed as cell growth level at 10 uM after 48 hrs by sulforhodamine B assay
[11] = Cytotoxicity against human NCI-ADR-RES cells after 48 hrs by sulforhodamine B assay
HT-29 = assay: Cytotoxicity against human HT-29 cells assessed as cell growth level at 10 nM after 48 hrs by sulforhodamine B assay
OVCAR-8 [12] = assay: Cytotoxicity against human OVCAR8 cells assessed as cell growth level at 1 uM after 48 hrs by sulforhodamine B assay
HCT-15 = assay: Cytotoxicity against human HCT15 cells assessed as cell growth level at 10 nM after 48 hrs by sulforhodamine B assay
UACC-62 [13] = assay: Cytotoxicity against human UACC62 cells after 48 hrs by sulforhodamine B assay; conditions: UACC-62, 48 h
K562 [14] = assay: Cytotoxicity against human K562 cells assessed as cell growth level at 100 nM after 48 hrs by sulforhodamine B assay
A549 = assay: Cytotoxicity against human A549/ATCC cells assessed as cell growth level at 10 uM after 48 hrs by sulforhodamine B assay
MCF7 [15] = assay: Cytotoxicity against human MCF7 cells after 48 hrs by sulforhodamine B assay; conditions: MCF7, 48 h
SN12C = assay: Cytotoxicity against human SN12C cells assessed as cell growth level at 10 uM after 48 hrs by sulforhodamine B assay
KM12 = assay: Cytotoxicity against human KM12 cells assessed as cell growth level at 10 uM after 48 hrs by sulforhodamine B assay
OVCAR-8 [16] = assay: Cytotoxicity against human OVCAR8 cells after 48 hrs by sulforhodamine B assay; conditions: OVCAR-8, 48 h
NCI-H226 = assay: Cytotoxicity against human NCI-H226 cells assessed as cell growth level at 10 uM after 48 hrs by sulforhodamine B assay
UACC-62 [17] = assay: Cytotoxicity against human UACC62 cells assessed as cell growth level at 1 uM after 48 hrs by sulforhodamine B assay
[18] = read-out: LC50 (the source's name)
[19] = read-out: pLC50 (the source's name) (converted)

SMILES: O=c1oc2ccccc2cc1-c1csc(N/N=C/c2c[nH]c3ccccc23)n1
- Activity (ACHN [1]): 99%
- GI50 (NCI-H460 [2]; read-out: GI50): 2.84 µM
- LC50 (NCI-H460 [2]; read-out: LC50): > 100 µM
- TGI (NCI-H460 [2]; read-out: TGI): 9.69 µM
- GI50 (NCI-H460 [2]; read-out: pGI50 (converted)): 2.82 µM
- LC50 (NCI-H460 [2]; read-out: pLC50 (converted)): > 100 µM
- TGI (NCI-H460 [2]; read-out: pTGI (converted)): 9.77 µM
- Activity (M14 [3]): 34.19%
- GI50 (COLO 205 [4]; read-out: GI50): 1.92 µM
- LC50 (concentration killing 50% of cells) (COLO 205 [4]; read-out: LC50): 6.55 µM
- TGI (COLO 205 [4]; read-out: TGI): 3.55 µM
- GI50 (COLO 205 [4]; read-out: pGI50 (converted)): 1.91 µM
- LC50 (concentration killing 50% of cells) (COLO 205 [4]; read-out: pLC50 (converted)): 6.61 µM
- TGI (COLO 205 [4]; read-out: pTGI (converted)): 3.55 µM
- Activity (COLO 205 [5]): 28.15%
- Activity (LOX IMVI): -45%
- Activity (HOP-62): 11.3%
- Activity (786-0): -53.65%
- Activity (MCF7 [6]): 69%
- GI50 (MDA-MB-231; read-out: GI50): 1.39 µM
- CC50 (MDA-MB-231; [18]): 7.94 µM
- TGI (MDA-MB-231; read-out: TGI): 3.33 µM
- GI50 (MDA-MB-231; read-out: pGI50 (converted)): 1.38 µM
- CC50 (MDA-MB-231; [19]): 7.94 µM
- TGI (MDA-MB-231; read-out: pTGI (converted)): 3.31 µM
- Activity (UACC-257): 8.34%
- Activity (IGROV-1): 107%
- GI50 (ACHN [7]; read-out: GI50): 1.31 µM
- CC50 (ACHN [7]; [18]): 70.8 µM
- TGI (ACHN [7]; read-out: TGI): 4.36 µM
- GI50 (ACHN [7]; read-out: pGI50 (converted)): 1.32 µM
- CC50 (ACHN [7]; [19]): 70.8 µM
- TGI (ACHN [7]; read-out: pTGI (converted)): 4.37 µM
- Activity (M14 [8]): 89%
- Activity (SR): 102%
- Activity (A498): 6.72%
- Activity (OVCAR-5): 102%
- GI50 (SF-268; read-out: GI50): 1.93 µM
- CC50 (SF-268; [18]): > 100 µM
- TGI (SF-268; read-out: TGI): 8.77 µM
- GI50 (SF-268; read-out: pGI50 (converted)): 1.95 µM
- CC50 (SF-268; [19]): > 100 µM
- TGI (SF-268; read-out: pTGI (converted)): 8.71 µM
- Activity (MOLT-4): -40%
- Activity (RPMI-8226): 94%
- Activity (K562 [9]): 0.99%
- Activity (NCI-H460 [10]): 5.79%
- GI50 ([11]; read-out: GI50): 2.82 µM
- CC50 [11, 18]: > 100 µM
- TGI ([11]; read-out: TGI): 9.23 µM
- GI50 ([11]; read-out: pGI50 (converted)): 2.82 µM
- CC50 [11, 19]: > 100 µM
- TGI ([11]; read-out: pTGI): < 9.33 µM
- Activity (HT-29): 106%
- Activity (OVCAR-8 [12]): 94%
- Activity (HCT-15): 95%
- GI50 (UACC-62 [13]; read-out: GI50): 1.6 µM
- CC50 (UACC-62 [13]; [18]): 7.11 µM
- TGI (UACC-62 [13]; read-out: TGI): 3.38 µM
- GI50 (UACC-62 [13]; read-out: pGI50 (converted)): 1.58 µM
- CC50 (UACC-62 [13]; [19]): 7.08 µM
- TGI (UACC-62 [13]; read-out: pTGI (converted)): 3.39 µM
- Activity (K562 [14]): 110%
- Activity (A549): -30.98%
- GI50 (MCF7 [15]; read-out: GI50): 2.4 µM
- CC50 (MCF7 [15]; [18]): > 100 µM
- TGI (MCF7 [15]; read-out: TGI): 15.5 µM
- GI50 (MCF7 [15]; read-out: pGI50 (converted)): 2.4 µM
- CC50 (MCF7 [15]; [19]): > 100 µM
- TGI (MCF7 [15]; read-out: pTGI (converted)): 15.5 µM
- Activity (SN12C): 0.22%
- Activity (KM12): -47.67%
- GI50 (OVCAR-8 [16]; read-out: GI50): 1.9 µM
- CC50 (OVCAR-8 [16]; [18]): > 100 µM
- TGI (OVCAR-8 [16]; read-out: TGI): 4.56 µM
- GI50 (OVCAR-8 [16]; read-out: pGI50 (converted)): 1.91 µM
- CC50 (OVCAR-8 [16]; [19]): > 100 µM
- TGI (OVCAR-8 [16]; read-out: pTGI (converted)): 4.57 µM
- Activity (NCI-H226): 42.82%
- Activity (UACC-62 [17]): 69%
